For 2 molecules, Kd results are on record in article PMC8911585, “Unique Properties of Heme Binding of the Porphyromonas gingivalis HmuY Hemophore-like Protein Result from the Evolutionary Adaptation of the Protein Structure” (Molecules, 2022).

Read-outs that look alike come from different tables or passages of the source.

Experiment [1] addresses T1, HmuY (Porphyromonas gingivalis, UniProt A2I2W2, H134M). In words: biochemical.
Experiment [2] deals with T1, HmuY. Put plainly: biochemical. The source holds these as a separate data set.

T1 sequence (A2I2W2 26-216 H134M): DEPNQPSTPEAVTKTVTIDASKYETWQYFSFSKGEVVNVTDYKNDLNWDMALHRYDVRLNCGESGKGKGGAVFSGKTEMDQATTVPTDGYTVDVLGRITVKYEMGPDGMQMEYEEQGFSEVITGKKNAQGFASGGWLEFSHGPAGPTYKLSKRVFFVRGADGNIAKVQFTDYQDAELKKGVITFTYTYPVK

In the case of `C=CC1=C(C)C2=Cc3c(C=C)c(C)c4[n]3[Fe][n]3c(c(C)c(CCC(=O)O)c3=CC3=NC(=C4)C(C)=C3CCC(=O)O)=CC1=N2` [Fe(II)heme], the affinity in experiment [1], expressed as Kd, was 0.011 µM. This counts as double-digit nanomolar.

`C=CC1=C(C)C2=Cc3c(C=C)c(C)c4[n]3[Fe]([Cl])[n]3c(c(C)c(CCC(=O)O)c3=CC3=NC(=C4)C(C)=C3CCC(=O)O)=CC1=N2` [Fe(III)heme] showed a Kd in experiment [2] of 12 µM. In other words, the double-digit micromolar range.
